Results reported in ChEMBL document CHEMBL1201862, “PubChem BioAssay data set” (2004).
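Tested at 5 concentrations; 48 h exposure; 96-well plates; endpoints linearly interpolated, else capped at highest concentration. GI50 is the concentration that inhibits growth by half.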 Active and inactive are the calls of the source. No stated cut-off is given here; in the data, active = GI50 up to about 1.1 µM and inactive = higher.

What was measured:
Assay in all cases: NCI tumour cell line growth inhibition, 48 h
HOP-18 = test system: HOP-18
KM-20L2 = test system: KM-20L2
RXF 631 = test system: RXF 631
DLD-1 = test system: DLD-1
LXFL 529 = test system: LXFL 529
DMS-114 = test system: DMS-114
DMS-273 = test system: DMS-273
XF498 = test system: XF498
SNB-78 = test system: SNB-78

Compound	GI50 (HOP-18)	GI50 (KM-20L2)	GI50 (RXF 631)	GI50 (DLD-1)	GI50 (LXFL 529)	GI50 (DMS-114)	GI50 (DMS-273)	GI50 (XF498)	GI50 (SNB-78)
COc1cc2c3c(c1OC)C1(C=CC(=O)C=C1)C[C@H]3N(C)CC2 [PRONUCIFERINE]	> 100 µM (inactive)	> 100 µM (inactive)	> 100 µM (inactive)	> 100 µM (inactive)	> 100 µM (inactive)	> 100 µM (inactive)	> 100 µM (inactive)	> 100 µM (inactive)	> 100 µM (inactive)
O=C(O)c1oc2ccc([N+](=O)[O-])c3c2c1CCC3	> 100 µM (inactive)	> 100 µM (inactive)	–	> 100 µM (inactive)	> 100 µM (inactive)	> 100 µM (inactive)	> 100 µM (inactive)	24.4 µM (inactive)	> 100 µM (inactive)
CCOC(=O)/C(=C\c1ccccc1)C(=O)CCN1CCOCC1	13.9 µM (inactive)	9.89 µM (inactive)	11.3 µM (inactive)	2.43 µM (inactive)	1.84 µM (inactive)	4.92 µM (inactive)	10.4 µM (inactive)	–	11.6 µM (inactive)
C[N+]1(C)C/C(=C\c2ccccc2)C(=O)/C(=C/c2ccccc2)C1	> 100 µM (inactive)	> 100 µM (inactive)	> 100 µM (inactive)	> 100 µM (inactive)	70.1 µM (inactive)	39.5 µM (inactive)	37.5 µM (inactive)	> 100 µM (inactive)	> 100 µM (inactive)
Nc1ccccc1C(=O)CCC1C(=O)NC(=S)NC1=O	> 100 µM (inactive)	> 100 µM (inactive)	> 100 µM (inactive)	> 100 µM (inactive)	> 100 µM (inactive)	> 100 µM (inactive)	> 100 µM (inactive)	–	–
O=C(Nc1nc2ncn(CC(COc3ccccc3)OC(=O)c3ccccc3)c2c(=O)[nH]1)c1ccccc1 (configuration not stated)	–	> 100 µM (inactive)	> 100 µM (inactive)	–	–	> 100 µM (inactive)	> 100 µM (inactive)	> 100 µM (inactive)	–
COc1ccc2c3c(c(C(=O)O)oc13)CCC2	–	–	–	> 100 µM (inactive)	> 100 µM (inactive)	> 100 µM (inactive)	> 100 µM (inactive)	> 100 µM (inactive)	> 100 µM (inactive)
CC(=O)O/C(C)=C\C(=O)O/N=C(\N)c1ccc(C)cc1	26.2 µM (inactive)	33.7 µM (inactive)	22.5 µM (inactive)	18.9 µM (inactive)	19.5 µM (inactive)	18.8 µM (inactive)	28.4 µM (inactive)	23.9 µM (inactive)	21.1 µM (inactive)
CC(C(=O)O)/C(=C\c1ccc2c(c1)OCO2)C(=O)O (configuration not stated)	> 100 µM (inactive)	> 100 µM (inactive)	> 100 µM (inactive)	> 100 µM (inactive)	> 100 µM (inactive)	> 100 µM (inactive)	> 100 µM (inactive)	> 100 µM (inactive)	–
CSC1(C)CC2C(CC1N1CCCCC1)C2(C)C (configuration not stated)	> 100 µM (inactive)	–	–	> 100 µM (inactive)	> 100 µM (inactive)	–	> 100 µM (inactive)	> 100 µM (inactive)	> 100 µM (inactive)
c1ccc(C2CC(c3ccc4ccccc4c3)=Nc3ccccc3S2)cc1 (configuration not stated)	19.4 µM (inactive)	18.3 µM (inactive)	24.3 µM (inactive)	> 10 µM (inactive)	14.5 µM (inactive)	–	21.3 µM (inactive)	17.4 µM (inactive)	18.6 µM (inactive)
O=C1C(Cl)=C(N2CCN(CCOCCO)CC2)C(=O)c2ccccc21	16.3 µM (inactive)	18 µM (inactive)	–	–	1.79 µM (inactive)	–	16.9 µM (inactive)	2.55 µM (inactive)	15.3 µM (inactive)
O=C(c1ccc(Cl)cc1)N(C(=S)N1CCN(c2ccccc2)CC1)c1ccccc1	> 100 µM (inactive)	> 100 µM (inactive)	–	> 100 µM (inactive)	> 100 µM (inactive)	–	> 100 µM (inactive)	–	> 100 µM (inactive)
O=C1CC(C[C@H](O)C2CCCCC2O)CC(=O)N1Cc1ccccc1 (some centres not stated)	> 100 µM (inactive)	> 100 µM (inactive)	> 100 µM (inactive)	> 100 µM (inactive)	> 100 µM (inactive)	–	> 100 µM (inactive)	> 100 µM (inactive)	> 100 µM (inactive)
COc1cc(Br)c(/C=N\c2cccc3cc(OC)c(OC)cc23)cc1OC	> 100 µM (inactive)	55.6 µM (inactive)	50.5 µM (inactive)	43.4 µM (inactive)	25.9 µM (inactive)	17.2 µM (inactive)	43.4 µM (inactive)	–	55.8 µM (inactive)
O=C(CC(=O)C(=O)CC(=O)OCc1ccccc1)OCc1ccccc1	–	> 100 µM (inactive)	–	60.8 µM (inactive)	> 100 µM (inactive)	> 100 µM (inactive)	–	–	–
CCCS(=O)(=O)/C(=C(\c1ccc(Br)cc1)S(=O)(=O)CCC)c1ccc(Br)cc1	> 10 µM (inactive)	> 10 µM (inactive)	–	> 10 µM (inactive)	> 10 µM (inactive)	–	> 10 µM (inactive)	> 10 µM (inactive)	> 10 µM (inactive)
CC(=O)OCC1OC(NC(=S)N/N=C2\CC(c3ccccc3)Oc3ccccc32)C(OC(C)=O)C(OC(C)=O)C1OC(C)=O (configuration not stated)	> 100 µM (inactive)	> 100 µM (inactive)	32 µM (inactive)	> 100 µM (inactive)	> 100 µM (inactive)	> 100 µM (inactive)	56.8 µM (inactive)	> 100 µM (inactive)	> 100 µM (inactive)
CCOC(=O)C1=C(C)N(Cc2ccccc2)C(C)=C(C(=O)OCC)C1c1ccccc1O	44.2 µM (inactive)	41 µM (inactive)	22.5 µM (inactive)	27.9 µM (inactive)	26.5 µM (inactive)	17.9 µM (inactive)	32.7 µM (inactive)	21.5 µM (inactive)	–
COC(=O)C1(C(C)C)CCc2c(OC)ccc(OC)c2C1=O (configuration not stated)	> 100 µM (inactive)	> 100 µM (inactive)	–	> 100 µM (inactive)	> 100 µM (inactive)	> 100 µM (inactive)	–	> 100 µM (inactive)	> 100 µM (inactive)
O=C1c2ccccc2C2(Br)C(=O)c3ccccc3C12 (configuration not stated)	> 100 µM (inactive)	> 100 µM (inactive)	10.4 µM (inactive)	> 100 µM (inactive)	> 100 µM (inactive)	> 100 µM (inactive)	19.6 µM (inactive)	–	–
O=C1OC2CCCC[C@@H]2C2C[C@]34CCCCC3[C@@H](C(=O)O4)C12 (some centres not stated)	> 100 µM (inactive)	> 100 µM (inactive)	–	> 100 µM (inactive)	> 100 µM (inactive)	> 100 µM (inactive)	–	> 100 µM (inactive)	> 100 µM (inactive)
CSc1ccc2c(cc1=O)C(NC(=O)c1cc(O)c(OC(=O)O)c(O)c1)CCc1cc(O)c(O)c(O)c1-2 (configuration not stated)	> 89.9 µM (inactive)	24.9 µM (inactive)	–	18.5 µM (inactive)	16.5 µM (inactive)	15.2 µM (inactive)	17 µM (inactive)	–	33.3 µM (inactive)
O=c1oc2ccccc2c(O)c1C(C/C(CCN1CCCC1)=N/O)c1ccccc1 (configuration not stated)	–	> 100 µM (inactive)	> 100 µM (inactive)	> 100 µM (inactive)	> 100 µM (inactive)	> 100 µM (inactive)	–	> 100 µM (inactive)	–
CCN(CC)CCNc1ccc2ncn3c4ccc(OC)cc4c(=O)c1c23	17 µM (inactive)	0.964 µM (active)	1.61 µM (inactive)	1.08 µM (active)	2.46 µM (inactive)	11.5 µM (inactive)	1.67 µM (inactive)	5.02 µM (inactive)	14 µM (inactive)
CCCC(=O)c1ccc(=O)n(C)c1	–	> 100 µM (inactive)	88.3 µM (inactive)	> 100 µM (inactive)	> 100 µM (inactive)	> 100 µM (inactive)	> 100 µM (inactive)	> 100 µM (inactive)	–
CC(Cl)(/C=C/Cl)C(Cl)/C=C/C(Cl)(CCl)CBr (configuration not stated)	2.52 µM (inactive)	5.22 µM (inactive)	1.91 µM (inactive)	2.47 µM (inactive)	1.22 µM (inactive)	1.96 µM (inactive)	3.63 µM (inactive)	–	1.75 µM (inactive)
